Earlier results in patent US20240424001A1, “LOCAL […] OF GROWTH AND REPAIR PROMOTING COMPOUNDS FOR TREATING, REDUCING AND/OR PREVENTING STRESS URINARY IN[…] FECAL INCONTINENCE” (STATERA PHARMA INC., priority 2021, published 2024).

Conditions: approximate; testosterone = 100%; varies with species studied and assay methodology (ref. 14)

Compound	relative potency of androgens [%]
C[C@]12CCC(=O)C=C1CC[C@@H]1[C@@H]2CC[C@]2(C)C(=O)CC[C@@H]12 [androstenedione]	~10
C[C@]12CC[C@H](O)CC1=CC[C@@H]1[C@@H]2CC[C@]2(C)C(=O)CC[C@@H]12 [dehydroepiandrosterone]	~5
C[C@]12CC[C@H]3[C@@H](CCC4=CC(=O)CC[C@@]43C)[C@@H]1CC[C@@H]2O [testosterone]	~100
